Article PMC9684134, “In vitro biochemical assessment of mixture effects of two endocrine disruptors on INS-1 cells” (Scientific Reports, 2022)
Where two headings read alike, the source gives them in different places.

Assays:
[1] = tested on: INS-1 cells
Method: (§2) TMRE is a cell permeable cationic dye that accumulates in the mitochondrial matrix according to mitochondrial membrane potential (ΔψM). Staining solution was prepared by adding 5 mL PBS, 50 µL TMRE working solution and 2 µL Hoechst 33342 solution to 5 mL of RPMI. The spent medium was removed and 50 µL staining solution was put in each well and incubated for 30 min at 37 °C. Image acquisition and data analysis were done as indicated.

[2] = tested on: caspase 3 activation in INS-1 cells; test: Caspase-3 activation assay; assay type: cell-based, rat; settings: 48 h
Method: Additional 100 µL test compounds were solubilized in the medium and incubated for 48 h. The spent medium was replaced with 100 µL of fix solution (4% formaldehyde in phosphate-buffered saline (PBS) and was fixed overnight; the cells were permeabilized with ice cold methanol, then washed with PBS and blocked using 1% BSA followed by incubation with the primary antibody at 1:200 dilution in blocking buffer for 2 h. The excess antibody was removed by washing with blocking buffer. Incubation was thereafter carried out with secondary antibody (FITC labelled) for 30 min and later washed with blocking buffer to remove excess antibody. Images from nine sites per well were acquired using filter sets appropriate for DAPI and FITC. Image analysis was done as in previous experiments.

[3] = tested on: INS-1 cells; test: Glucose-galactose cytotoxicity assay (MTT); settings: for IC50: Rattus norvegicus, INS1, 48 h
Method: Sub-culturing was in ratio 4:3. Cell density was 15,000 cells/well and treated with 200 µL of the test solution that was solubilized in glucose-free RPMI medium supplemented with 5 mM glucose or 5 mM galactose. The cells were incubated further for 48 h. The spent medium was replaced with 100 µL glucose in RPMI medium. 2,4-dinitrophenol served as positive control. The cells were finally loaded with MTT as in section “Cell viability assay” but incubation took 120 min.

[4] = tested on: INS-1 cells; test: Oxidative stress: ROS by CellROX orange staining; assay type: cell-based, rat; settings: Table 3 summary, low and high concentration, 48 h
Method: (§1) The spent medium in section “Treatment of INS-1 cells” was removed and 50 µL CellROX staining solution was added to each well according to the manufacturer’s instructions and incubated at 37 °C for 30 min. Images from nine sites per well were acquired using filter sets appropriate for DAPI (4′, 6-diamidino-2-phenylindole) and TRITC (tetramethylrhodamine-isothiocyanate) which were the fluorophors. Image acquisition was done on ImageXpress Micro XLS and analyzed using the Multi-Wavelength Scoring software (Molecular Devices). In another experiment 50 µL ThiolTracker Violet staining solution was put in each well and incubated at 37 °C for 20 min. Images from nine sites per well were acquired using filter sets appropriate for DAPI and CY5 (amine reactive fluorescent dye). Image acquisition and data analysis were as done for the CellROX orange reagent. Excitation/Emission wavelength was at 545/565 nm.

[5] = tested on: INS-1 cells; test: Glucose uptake assay (glucose oxidase); assay type: cell-based, rat; settings: Table 3 summary, low and high concentration, 48 h
Method: Glucose uptake was determined in INS-1 cells by monitoring the levels of glucose remaining in the culture medium after a selected treatment period. The cell density was 30 000 per well; one row was without cells to serve as maximum glucose content. Spent medium was removed and the cells were treated with 100 µL of the test compounds at concentrations indicated in section “Treatment of INS-1 cells”. The cells were incubated for a further 48 h and 5µL spent culture medium was thereafter transferred to a new plate of 96 wells and 200 µL glucose oxidase reagent added. Incubation was at 37 °C for 20 min and absorbance was read at 520 nm. Glucose uptake was obtained as the difference in glucose concentration between wells without cells and those with cells and respective treatments.

[6] = tested on: INS-1 cells; test: Glucose stimulated calcium influx (Fluo-4); assay type: cell-based, rat; settings: 20 mM glucose stimulation; for Intracellular calcium levels (summary): Table 3 summary, 24 h incubation; for Glucose stimulated intracellular calcium flux compared with the Blank: positive controls
Method: Fluo-4 dye is specific for intracellular Ca^2+ concentration. On binding calcium, the green fluorescence intensity increases by more than 100 folds (excitation/emission 494/[…]). Incubation was for 24 h. Staining solution was prepared by adding 20 µL Flou-4 stock solution (1 mM in DMSO) and 2 µL Hoechst solution to 10 mL of PBS. After staining, incubation was done for 30 min at 37 °C. The stain solution was removed and replaced with 50 µL PBS. Incubation was further carried out at room temperature for 20 min. Difference in fluorescence intensity between wells containing glucose and those without glucose represents calcium influx in response to glucose. Just prior to image acquisition, 20 mM glucose was added to four of the eight replicate wells and incubated at room temperature for 10 min. Image acquisition and data analyses were done as usual. Filter sets appropriate for DAPI and FITC were also used. Diazoxide and Glibenclamide were used as the positive controls.

[7] = Cell viability assay (MTT); assay type: cell-based; settings: rat
Method: INS-1 cells were routinely grown at 5% CO2, 95% air at 37 °C in RPMI-1640 containing 11.1 mM glucose and supplemented with 10% foetal calf serum (FCS), 1 mM pyruvate, 10 mM 4-(2-hydroxyethyl)-1-piperazine ethane sulphonic acid (HEPES), 50 µM 2-mercaptoethanol, 100 U penicillin/mL and 100 µg streptomycin/mL. Sub-confluent cultures were trypsinized to dislodge the cells and sub-cultured at a ratio of 1:3 or 1:0.75 in other experiments. INS-1 cells were seeded into a 96-well plate at densities of 10 000, 15 000 or 30,000 cells/well. They were allowed to attach at 37 °C overnight.
The cells were incubated for 48 h with test compounds containing 20 µM or 30 µM 4-tOP and 8 µM or 12.5 µM TCS. Combination treatments (4-tOP + TCS) were 12.5 µM or 25 µM at 1:1 ratio.
Cell viability was assessed by a principle of enzymatic reduction of 3-[4, 5-dimethylthiazole-2-yl]-2, 5-diphenyltetrazolium bromide (MTT) to formazan. The treated cells respectively were loaded with 20 µL 0.5 mg/mL MTT and incubated at 37 °C for 3 h. […] The absorbance of the purple-coloured formazan was measured at 540 nm on microplate reader. IC50, (the median inhibitory concentration) was calculated with GraphPad Prism software. Data were expressed as a percentage of control.
Results were expressed as means ± SD from at least three replicate measurements. The difference between means was analyzed with ANOVA, α value = 0.05. […]

[8] = tested on: INS-1 cells; test: Mitochondrial mass (MitoTracker Green staining); assay type: cell-based, rat; settings: 48 h; for Mitochondrial mass (summary): Table 3 summary, all concentrations
Method: Staining solution consisted of 10 mL of PBS to which was added 1 µL MitoTracker Green (MTG) stock (1 mM in DMSO) and 2 µL Hoechst solution (10 mg/mL in DMSO). Spent medium was removed and 50 µL staining solution added to each well (96 wells) followed by incubation at 37 °C for 20 min.

[9] = tested on: INS-1 cells; assay type: cell-based, rat; settings: for Annexin PI: mode of cell death (summary): Table 3 summary
Method: The treated cells were sub-cultured at 4:3. Annexin V-FITC staining assay was performed as recommended by the manufacturer. Melphalan (Mel) and Etoposide (Etop) served as the positive controls. Incubation lasted 48 h. The spent medium was removed and 50 µL PI staining solution was in each well and incubated for 15 min at 37 °C followed by image acquisition and data analysis as in previous experiments. Images from nine sites per well were acquired using filter sets appropriate for DAPI, FITC and Texas red dyes.

[10] = tested on: INS-1 cells; test: Oxidative stress: reduced glutathione by ThiolTracker Violet staining; assay type: cell-based, rat; settings: 48 h; for Glutathione levels (oxidative stress summary): Table 3 summary, low and high concentration
Method: as §1

[11] = tested on: INS-1 cells; test: Mitochondrial membrane potential (TMRE staining); settings: 48 h
Method: as §2

[12] = design: method as in PMID 9894786; settings: Ca2+-dependent binding to phosphatidylserine; cited from earlier work
[13] = tested on: HepG2 human liver cells; design: method as in PMID 27459410; settings: cited from earlier work
[14] = high concentration (12.5 µM TCS, 30 µM 4-tOP, 25 µM Mix), 48 h
[15] = low concentration (8 µM TCS, 20 µM 4-tOP, 12.5 µM Mix), 48 h

For `CC(C)(C)CC(C)(C)c1ccc(O)cc1` [4-tert-Octylphenol], the “Mitochondrial membrane potential MMP (summary)” value [1] was “The increase in MMP was not substantial”, the “Caspase 3 activation compared with the Blank” value ([2]; test substances) was “Increase in caspase 3 activation not substantial” and the IC50 ([3]; read-out: IC50 Galactose) was 34.5 µM. The IC50 ([3]; read-out: IC50 Glucose) was 33.4 µM, the “Glucose-galactose differential cytotoxicity (summary)” value ([3]; rat, 48 h) was “Higher IC50 in galactose than in glucose” and the “ROS (oxidative stress summary)” value [4] was “Dose dependent increase in ROS but variation high hampering statistical significance”. For the same compound, the “Glucose uptake (summary)” value [5] was “Consumption pattern as with T. No significant change in glucose consumption”, the “Intracellular calcium levels (summary)” value [6] was “No significant changes in glucose stimulated intracellular calcium levels” and the IC50 at 48 h [7] was 32.5 µM. For the same compound, the “Mitochondrial mass (summary)” value [8] was “No substantial change in mitochondrial content at all concentrations relative to the untreated cells”, the “Induction of apoptosis compared with the Blank” value ([9]; 20 µM or 30 µM, 48 h) was “failed to significantly induce apoptosis” and the “Annexin PI: mode of cell death (summary)” value [9] was “Cell death by 4-tOP was by necrosis”. The “Proportion of live cells” value [9, 14] was 73.8%, the “Cell death by necrosis compared with the Blank” value ([9]; high concentration (30 µM 4-tOP), 48 h) was “significantly underwent necrosis” and the “Proportion of live cells” value [9, 15] was 81.4%. For the same compound, the “Glutathione levels (oxidative stress summary)” value [10] was “Decrease glutathione levels corroborated ROS production”.

With `N[C@@H](Cc1ccc(N(CCCl)CCCl)cc1)C(=O)O` [Melphalan, reference compound] the “Mitochondrial membrane potential ΔΨM (MMP) compared to the Blank” value ([11]; positive control 40 µM) was “Significant loss of mitochondrial membrane potential”, the “Mitochondrial mass relative to the Blank” value ([8]; positive control 40 µM) was “significantly increased mitochondrial mass” and the “Proportion of cells died by apoptosis” value ([9]; positive control 40 µM, 48 h) was 15.7%. The “Proportion of live cells” value ([9]; positive control 40 µM, 48 h) was 34.5% and the “GSH compared with the Blank” value ([10]; positive control 40 µM) was “significant reduction of GSH”.

In the case of `COc1ccc(Cl)cc1C(=O)NCCc1ccc(S(=O)(=O)NC(=O)NC2CCCCC2)cc1` [Glibenclamide, reference compound], the “Glucose stimulated intracellular calcium flux compared with the Blank” value [6] is reported as “significantly increased intracellular calcium flux”.

With `CC1=NS(=O)(=O)c2cc(Cl)ccc2N1` [Diazoxide, reference compound] the “Glucose stimulated intracellular calcium flux compared with the Blank” value [6] was “significantly increased intracellular calcium flux”.

For “Annexin V: 35 kDa Ca2+-dependent phospholipid binding protein used to detect phosphatidylserine”, the Kd [12] is listed as 0.007 µM.

Work on `O=[N+]([O-])c1ccc(O)c([N+](=O)[O-])c1` [2,4-Dinitrophenol, 2,4-dinitrophenol, reference compound] yielded an IC50 ([3]; read-out: IC50 Galactose) of 24.5 µM and an IC50 ([3]; read-out: IC50 Glucose) of 46 µM.

For `COc1cc([C@@H]2c3cc4c(cc3[C@@H](O[C@@H]3O[C@@H]5CO[C@@H](C)O[C@H]5[C@H](O)[C@H]3O)[C@H]3COC(=O)[C@H]23)OCO4)cc(OC)c1O` [Etoposide, reference compound], the “Caspase 3 activation compared with the Blank” value ([2]; positive control 40 µM) was “significant increases in caspase 3 activation”, the “Proportion of cells died by apoptosis” value ([9]; positive control 40 µM, 48 h) was 17.4% and the “Proportion of live cells” value ([9]; positive control 40 µM, 48 h) was 42.5%. The “GSH compared with the Blank” value ([10]; positive control 40 µM) was “significant reduction of GSH”.

In the case of `Oc1cc(Cl)ccc1Oc1ccc(Cl)cc1Cl` [Triclosan], the “Mitochondrial membrane potential MMP (summary)” value ([11]; Table 3 summary) is reported as “Significant decrease in MMP at the high concentration. only”, the “Mitochondrial membrane potential ΔΨM (MMP) compared to the Blank” value ([11]; high concentration (12.5 µM TCS, 25 µM Mix)) is reported as “Significant loss of mitochondrial membrane potential” and the “Caspase 3 activation compared with the Blank” value ([2]; test substances) is reported as “Increase in caspase 3 activation not substantial”. For the same compound, the IC50 ([3]; read-out: IC50 Galactose) was 8.23 µM, the IC50 ([3]; read-out: IC50 Glucose) was 11.7 µM and the “Glucose-galactose differential cytotoxicity (summary)” value ([3]; Table 3 summary) was “Increased cytotoxicity in galactose medium indicative of potential mitochondrial toxicity”. The “ROS (oxidative stress summary)” value [4] was “Dose dependent increase in ROS but variation high hampering statistical significance”, the “Glucose uptake (summary)” value [5] was “Decreased glucose consumption at high concentration, increase at low concentration but not substantial compared with Blank” and the “Intracellular calcium levels (summary)” value [6] was “The reduction in glucose stimulated intracellular calcium flux was not substantial”. The IC50 at 48 h ([7]; INS-1 cells, MTT, 48 h, read-out: IC50 for cytotoxicity against INS-1 cells) was 12.7 µM, the “Mitochondrial mass (summary)” value [8] was “No substantial change in mitochondrial content at all the concentrations relative to the untreated cells” and the “Annexin PI: mode of cell death (summary)” value [9] was “TCS induced cell death by apoptosis”. The “Proportion of cells died by apoptosis” value ([9]; high concentration (12.5 µM TCS, 25 µM Mix), 48 h) was 16.6%, the “Proportion of live cells” value [9, 14] was 43.7% and the “Proportion of live cells” value [9, 15] was 81.2%. For the same compound, the IC50 [13] was 24.5 µM, the “Glutathione levels (oxidative stress summary)” value [10] was “Decreased glutathione levels corroborated ROS production” and the “GSH compared with the Blank” value ([10]; high concentration (12.5 µM TCS)) was “significant reduction of GSH”.
